Experimental data: ChEMBL document CHEMBL1287775, “Stereoselective synthesis of hexahydro-3-methyl-1-arylchromeno[3,4-b]pyrrole and its annulated heterocycles as potent antimicrobial agents for human pathogens” (2010)
Values after ≈ are worked out from the molar mass of the structure shown.

Assays:
Staphylococcus aureus = assay: Antimicrobial activity against Staphylococcus aureus by well diffusion method; type: functional
Bacillus subtilis = assay: Antimicrobial activity against Bacillus subtilis by well diffusion method; type: functional
Streptococcus pneumoniae = assay: Antimicrobial activity against Streptococcus pneumoniae by well diffusion method; type: functional
Escherichia coli = assay: Antimicrobial activity against Escherichia coli by well diffusion method; type: functional
Shigella sp. = assay: Antimicrobial activity against Shigella sp. by well diffusion method; type: functional
Salmonella typhi = assay: Antimicrobial activity against Salmonella typhi by well diffusion method; type: functional, Salmonella enterica subsp. enterica serovar Typhi; conditions: Salmonella enterica
Trichoderma = assay: Antimicrobial activity against Trichoderma sp. by poison food technique; type: functional
Aspergillus sp. = assay: Antimicrobial activity against Aspergillus sp. by poison food technique; type: functional
Candida albicans = assay: Antimicrobial activity against Candida albicans by poison food technique; type: functional

| SMILES | MIC (Staphylococcus aureus) | MIC (Bacillus subtilis) | MIC (Streptococcus pneumoniae) | MIC (Escherichia coli) | MIC (Shigella sp.) | MIC (Salmonella typhi) | MIC (Trichoderma) | MIC (Aspergillus sp.) | MIC (Candida albicans) |
| --- | --- | --- | --- | --- | --- | --- | --- | --- | --- |
| O=C(c1ccc(Cl)cc1)[C@@H]1[C@H]2c3ccccc3OC[C@H]2N2CCC[C@H]12 | 5 µg/mL (≈ 14.1 µM) | 5 µg/mL (≈ 14.1 µM) | 10 µg/mL (≈ 28.3 µM) | 10 µg/mL (≈ 28.3 µM) | 5 µg/mL (≈ 14.1 µM) | 15 µg/mL (≈ 42.4 µM) | 30 µg/mL (≈ 84.8 µM) | 25 µg/mL (≈ 70.7 µM) | 25 µg/mL (≈ 70.7 µM) |
| COC(=O)Nc1nc2ccccc2[nH]1 [CARBENDAZIM] | – | – | – | – | – | – | 15 µg/mL (≈ 78.5 µM) | 15 µg/mL (≈ 78.5 µM) | 10 µg/mL (≈ 52.3 µM) |
| O=C(c1ccc(Cl)cc1)[C@@H]1[C@H]2c3ccccc3OC[C@H]2N2CSC[C@H]12 | 25 µg/mL (≈ 67.2 µM) | 20 µg/mL (≈ 53.8 µM) | 30 µg/mL (≈ 80.7 µM) | 15 µg/mL (≈ 40.3 µM) | 30 µg/mL (≈ 80.7 µM) | 25 µg/mL (≈ 67.2 µM) | 75 µg/mL (≈ 202 µM) | 70 µg/mL (≈ 188 µM) | 65 µg/mL (≈ 175 µM) |
| O=C1c2ccccc2CC[C@]12[C@H]1c3ccccc3OC[C@H]1N1CCC[C@@H]12 | 65 µg/mL (≈ 188 µM) | 70 µg/mL (≈ 203 µM) | 55 µg/mL (≈ 159 µM) | 50 µg/mL (≈ 145 µM) | 75 µg/mL (≈ 217 µM) | 60 µg/mL (≈ 174 µM) | 110 µg/mL (≈ 318 µM) | 75 µg/mL (≈ 217 µM) | 95 µg/mL (≈ 275 µM) |
| CN1C[C@H](C(=O)c2ccc(Cl)cc2)[C@H]2c3ccccc3OC[C@H]21 | 20 µg/mL (≈ 61 µM) | 15 µg/mL (≈ 45.8 µM) | 25 µg/mL (≈ 76.3 µM) | 10 µg/mL (≈ 30.5 µM) | 25 µg/mL (≈ 76.3 µM) | 10 µg/mL (≈ 30.5 µM) | 40 µg/mL (≈ 122 µM) | 35 µg/mL (≈ 107 µM) | 45 µg/mL (≈ 137 µM) |
| O=C(c1ccc(Cl)cc1)[C@@H]1[C@H]2c3ccccc3OC[C@H]2N2Cc3ccccc3C[C@H]12 | 5 µg/mL (≈ 12 µM) | 5 µg/mL (≈ 12 µM) | 15 µg/mL (≈ 36.1 µM) | 10 µg/mL (≈ 24 µM) | 20 µg/mL (≈ 48.1 µM) | 15 µg/mL (≈ 36.1 µM) | 45 µg/mL (≈ 108 µM) | 25 µg/mL (≈ 60.1 µM) | 20 µg/mL (≈ 48.1 µM) |
| CN(C)[C@@H]1C(O)=C(C(N)=O)C(=O)[C@@]2(O)C(O)=C3C(=O)c4c(O)cccc4[C@@](C)(O)[C@H]3C[C@@H]12 [TETRACYCLINE] | 15 µg/mL (≈ 33.8 µM) | 10 µg/mL (≈ 22.5 µM) | 20 µg/mL (≈ 45 µM) | 10 µg/mL (≈ 22.5 µM) | 15 µg/mL (≈ 33.8 µM) | 25 µg/mL (≈ 56.3 µM) | – | – | – |
| O=C1c2ccccc2CC[C@]12[C@H]1c3ccccc3OC[C@H]1N1CSC[C@@H]12 | 45 µg/mL (≈ 124 µM) | 55 µg/mL (≈ 151 µM) | 40 µg/mL (≈ 110 µM) | 65 µg/mL (≈ 179 µM) | 70 µg/mL (≈ 193 µM) | 60 µg/mL (≈ 165 µM) | 105 µg/mL (≈ 289 µM) | 75 µg/mL (≈ 206 µM) | 90 µg/mL (≈ 248 µM) |
| CN1C[C@@]2(CCc3ccccc3C2=O)[C@H]2c3ccccc3OC[C@H]21 | 20 µg/mL (≈ 62.6 µM) | 35 µg/mL (≈ 110 µM) | 60 µg/mL (≈ 188 µM) | 25 µg/mL (≈ 78.3 µM) | 45 µg/mL (≈ 141 µM) | 55 µg/mL (≈ 172 µM) | 105 µg/mL (≈ 329 µM) | 85 µg/mL (≈ 266 µM) | 75 µg/mL (≈ 235 µM) |
| O=C1c2ccccc2CC[C@]12[C@H]1c3ccccc3OC[C@H]1N1Cc3ccccc3C[C@@H]12 | 5 µg/mL (≈ 12.3 µM) | 5 µg/mL (≈ 12.3 µM) | 10 µg/mL (≈ 24.5 µM) | 5 µg/mL (≈ 12.3 µM) | 5 µg/mL (≈ 12.3 µM) | 5 µg/mL (≈ 12.3 µM) | 50 µg/mL (≈ 123 µM) | 25 µg/mL (≈ 61.3 µM) | 35 µg/mL (≈ 85.9 µM) |
